Measurements: ChEMBL document CHEMBL1201862, “PubChem BioAssay data set” (2004)
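Assay format: 96-well plates, 48-hour exposure. The concentration for 50% growth inhibition is given as GI50.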 Active and inactive are the calls of the source. No stated cut-off is given here; in the data, active = GI50 up to about 1.1 µM and inactive = higher.

Assays:
Assay in all cases: NCI anticancer screen, dose series, 48 h
A549 = tested on: A549
CCRF-CEM = tested on: CCRF-CEM
EKVX = tested on: EKVX
HCC 2998 = tested on: HCC 2998
HL-60 = tested on: HL-60
KM12 = tested on: KM12
LOX IMVI = tested on: LOX IMVI
NCI-H226 = tested on: NCI-H226
OVCAR-4 = tested on: OVCAR-4
SF-268 = tested on: SF-268
SF-295 = tested on: SF-295
SK-MEL-5 = tested on: SK-MEL-5
SK-OV-3 = tested on: SK-OV-3
SNB-75 = tested on: SNB-75
SW-620 = tested on: SW-620
UACC-257 = tested on: UACC-257
MDA-MB-231 = tested on: MDA-MB-231
NCI/ADR-RES = tested on: NCI/ADR-RES
Hs-578T = tested on: Hs-578T
PC-3 = tested on: PC-3

| Structure (SMILES) | GI50 (A549) | GI50 (CCRF-CEM) | GI50 (EKVX) | GI50 (HCC 2998) | GI50 (HL-60) | GI50 (KM12) | GI50 (LOX IMVI) | GI50 (NCI-H226) | GI50 (OVCAR-4) | GI50 (SF-268) | GI50 (SF-295) | GI50 (SK-MEL-5) | GI50 (SK-OV-3) | GI50 (SNB-75) | GI50 (SW-620) | GI50 (UACC-257) | GI50 (MDA-MB-231) | GI50 (NCI/ADR-RES) | GI50 (Hs-578T) | GI50 (PC-3) |
| --- | --- | --- | --- | --- | --- | --- | --- | --- | --- | --- | --- | --- | --- | --- | --- | --- | --- | --- | --- | --- |
| Cc1ccc(-c2c(N)[n+]([O-])c3ccccc3[n+]2[O-])cc1 | 23.3 µM (inactive) | 47.4 µM (inactive) | 23.4 µM (inactive) | 15.8 µM (inactive) | 9.95 µM (inactive) | 11.9 µM (inactive) | 11 µM (inactive) | 17.9 µM (inactive) | 17.3 µM (inactive) | 16.9 µM (inactive) | 20 µM (inactive) | 11.4 µM (inactive) | 21.2 µM (inactive) | 12.2 µM (inactive) | 5.25 µM (inactive) | 7.21 µM (inactive) | – | – | – | – |
| CCOC(OCC)N1C(=O)C2(C(OCC)OCC)CC3C(OC(=O)N3N)c3cccc1c32 (stereo unspecified) | > 100 µM (inactive) | 54.2 µM (inactive) | > 100 µM (inactive) | > 100 µM (inactive) | > 100 µM (inactive) | > 100 µM (inactive) | > 100 µM (inactive) | > 100 µM (inactive) | > 100 µM (inactive) | > 100 µM (inactive) | > 100 µM (inactive) | > 100 µM (inactive) | > 100 µM (inactive) | – | > 100 µM (inactive) | > 100 µM (inactive) | > 100 µM (inactive) | > 100 µM (inactive) | – | – |
| O=c1c2cc(Br)cc(Br)c2[nH]c(=S)n1-c1ccc(/N=N/c2ccc(O)c3cccnc23)cc1 | 17.8 µM (inactive) | – | 38.6 µM (inactive) | – | 38.1 µM (inactive) | > 100 µM (inactive) | 24.5 µM (inactive) | > 100 µM (inactive) | 57.9 µM (inactive) | 17.2 µM (inactive) | 64.9 µM (inactive) | 11.9 µM (inactive) | > 100 µM (inactive) | 29.2 µM (inactive) | 29.8 µM (inactive) | 50.5 µM (inactive) | 32.2 µM (inactive) | – | > 100 µM (inactive) | 39.9 µM (inactive) |
| COc1ccc2c(c1)[n+]([O-])c(-c1ccccc1)c(N)[n+]2[O-] | 37.1 µM (inactive) | 53 µM (inactive) | 43.8 µM (inactive) | 54 µM (inactive) | 41.6 µM (inactive) | 63.4 µM (inactive) | 44.1 µM (inactive) | > 100 µM (inactive) | 47.3 µM (inactive) | 30.5 µM (inactive) | 67.1 µM (inactive) | 18 µM (inactive) | > 100 µM (inactive) | > 100 µM (inactive) | 39.3 µM (inactive) | 21.2 µM (inactive) | – | – | – | – |
| O=C(CSc1nnc(Cc2ccccc2)o1)Nc1cccc(Cl)c1 | > 100 µM (inactive) | 71 µM (inactive) | > 100 µM (inactive) | 96.6 µM (inactive) | > 100 µM (inactive) | > 100 µM (inactive) | 64.4 µM (inactive) | > 100 µM (inactive) | 51.2 µM (inactive) | > 100 µM (inactive) | 68.7 µM (inactive) | 76.7 µM (inactive) | > 100 µM (inactive) | 25.9 µM (inactive) | > 100 µM (inactive) | > 100 µM (inactive) | – | – | – | – |
| NC(=O)NNC/C(Cl)=C(\Cl)C(=O)O | > 100 µM (inactive) | > 100 µM (inactive) | > 100 µM (inactive) | > 100 µM (inactive) | > 100 µM (inactive) | > 100 µM (inactive) | > 100 µM (inactive) | > 50 µM (inactive) | > 100 µM (inactive) | > 100 µM (inactive) | > 100 µM (inactive) | > 100 µM (inactive) | > 100 µM (inactive) | < 0.01 µM (active) | > 100 µM (inactive) | > 82.6 µM (inactive) | – | – | – | – |
| N#C/C(=C\c1ccc(O)c(O)c1)C(N)=S [TYRPHOSTIN 47] | > 100 µM (inactive) | 9.55 µM (inactive) | > 100 µM (inactive) | > 73.5 µM (inactive) | 10.1 µM (inactive) | 68.2 µM (inactive) | > 88.9 µM (inactive) | > 100 µM (inactive) | > 100 µM (inactive) | 66.1 µM (inactive) | 82.8 µM (inactive) | 71.1 µM (inactive) | > 100 µM (inactive) | 7.36 µM (inactive) | 79.1 µM (inactive) | > 54.7 µM (inactive) | – | – | – | – |
| CC1C2=C(CCCC2=O)N(c2ccc(Cl)cc2)C2=C1C(=O)CCC2 | 88.5 µM (inactive) | 38.5 µM (inactive) | 57.7 µM (inactive) | > 100 µM (inactive) | 31.3 µM (inactive) | > 100 µM (inactive) | 68.5 µM (inactive) | > 100 µM (inactive) | 39.1 µM (inactive) | > 100 µM (inactive) | – | 40.6 µM (inactive) | > 100 µM (inactive) | 16.3 µM (inactive) | > 100 µM (inactive) | – | – | 71 µM (inactive) | 50.1 µM (inactive) | 60 µM (inactive) |
| COC(=O)C/N=C1\NC(=S)N(Cc2ccc(OC)cc2)C12CCCC2 | > 100 µM (inactive) | > 100 µM (inactive) | > 100 µM (inactive) | > 100 µM (inactive) | – | > 100 µM (inactive) | – | > 100 µM (inactive) | > 100 µM (inactive) | > 100 µM (inactive) | > 100 µM (inactive) | – | > 100 µM (inactive) | > 100 µM (inactive) | > 100 µM (inactive) | > 100 µM (inactive) | > 100 µM (inactive) | > 100 µM (inactive) | – | > 100 µM (inactive) |
| FC(F)(Sc1ccccc1)c1nc2ccccc2o1 | 30.1 µM (inactive) | 19.4 µM (inactive) | – | 43.3 µM (inactive) | – | 57 µM (inactive) | – | 46.9 µM (inactive) | 97.1 µM (inactive) | > 100 µM (inactive) | 48.5 µM (inactive) | 50 µM (inactive) | 20.8 µM (inactive) | – | 61.1 µM (inactive) | > 100 µM (inactive) | > 100 µM (inactive) | 18.6 µM (inactive) | – | 35.5 µM (inactive) |
| C/C(=N\NC(=O)c1ccccc1O)c1c(O)cc(C)oc1=O | 33 µM (inactive) | > 10 µM (inactive) | 29.9 µM (inactive) | 92 µM (inactive) | 63.2 µM (inactive) | > 100 µM (inactive) | 76 µM (inactive) | 34.3 µM (inactive) | 71 µM (inactive) | 49.4 µM (inactive) | 51.4 µM (inactive) | 43.8 µM (inactive) | 17.4 µM (inactive) | 20.2 µM (inactive) | > 100 µM (inactive) | 60 µM (inactive) | – | – | – | – |
| CCCCCCCC(=O)N1C2CC3CCC2(CS1(=O)=O)C3(C)C (stereo unspecified) | 27 µM (inactive) | 16.5 µM (inactive) | 37.4 µM (inactive) | 24.7 µM (inactive) | 20 µM (inactive) | 26.2 µM (inactive) | – | – | 32.7 µM (inactive) | 35.4 µM (inactive) | 22.2 µM (inactive) | 18.2 µM (inactive) | 46.8 µM (inactive) | 24.7 µM (inactive) | 23.3 µM (inactive) | 24.5 µM (inactive) | – | – | 15.6 µM (inactive) | 23.7 µM (inactive) |
| CN(C)CCNC(=O)c1cccc2[nH]c(-c3ccccc3)nc12 | 16.3 µM (inactive) | 15.9 µM (inactive) | 23.9 µM (inactive) | 15.3 µM (inactive) | 21.7 µM (inactive) | 22.4 µM (inactive) | 15.6 µM (inactive) | 16.4 µM (inactive) | 28.4 µM (inactive) | 18.5 µM (inactive) | 25.2 µM (inactive) | 15.1 µM (inactive) | 17.3 µM (inactive) | 37.8 µM (inactive) | 13.1 µM (inactive) | 16.9 µM (inactive) | – | – | – | – |
| CC1OC(n2cc(I)c(=O)[nH]c2=O)C=CC1=O (stereo unspecified) | 26.7 µM (inactive) | 2.43 µM (inactive) | 17.5 µM (inactive) | 17.5 µM (inactive) | 6.82 µM (inactive) | 13 µM (inactive) | 6.47 µM (inactive) | 17.6 µM (inactive) | 16.3 µM (inactive) | 14.1 µM (inactive) | 18.5 µM (inactive) | 16 µM (inactive) | 29.2 µM (inactive) | 17.2 µM (inactive) | 13.2 µM (inactive) | 14.7 µM (inactive) | – | – | – | – |
| C/C(CC(=O)Nc1ccc(NC(=O)C/C(C)=N\NC(N)=O)cc1)=N/NC(N)=O | > 100 µM (inactive) | > 62.8 µM (inactive) | > 74.3 µM (inactive) | > 100 µM (inactive) | > 61.7 µM (inactive) | > 100 µM (inactive) | > 42.5 µM (inactive) | > 100 µM (inactive) | 96.2 µM (inactive) | > 60 µM (inactive) | > 100 µM (inactive) | > 100 µM (inactive) | > 100 µM (inactive) | > 93.5 µM (inactive) | > 100 µM (inactive) | > 100 µM (inactive) | – | – | – | – |
| c1ccc(-c2sc(-c3ccccc3)c3c2C(c2ccccc2)c2c(-c4ccccc4)sc(-c4ccccc4)c2C3c2ccccc2)cc1 (stereo unspecified) | > 100 µM (inactive) | > 100 µM (inactive) | > 100 µM (inactive) | > 100 µM (inactive) | > 100 µM (inactive) | > 100 µM (inactive) | > 100 µM (inactive) | > 100 µM (inactive) | > 100 µM (inactive) | > 100 µM (inactive) | > 100 µM (inactive) | > 100 µM (inactive) | > 100 µM (inactive) | > 100 µM (inactive) | > 100 µM (inactive) | > 100 µM (inactive) | – | – | – | – |
| COc1ccc(N[C@H]([C@@H](c2ccccc2)[S+]([O-])c2ccc(C)cc2)C(F)(F)F)cc1 (stereo partly specified) | 32.7 µM (inactive) | 21.8 µM (inactive) | 44 µM (inactive) | > 100 µM (inactive) | 19.1 µM (inactive) | 33.4 µM (inactive) | 53.1 µM (inactive) | 48.4 µM (inactive) | 26 µM (inactive) | – | 82.8 µM (inactive) | 35.8 µM (inactive) | > 100 µM (inactive) | 24.8 µM (inactive) | 61.1 µM (inactive) | > 100 µM (inactive) | 32.9 µM (inactive) | 87.3 µM (inactive) | – | 21.1 µM (inactive) |
